One assay deals with SNB-75. In words: Antiproliferative activity against human SNB-75 cells assessed as reduction in cell growth incubated for 48 hrs by SRB assay. The following applies: SNB-75, 48 h. The format is functional, cell-based.
Assay [1] addresses Phosphatidylinositol 4,5-bisphosphate 3-kinase catalytic subunit alpha isoform (Homo sapiens, UniProt P42336). The experiment in a line: Inhibition of PI3Kalpha (unknown origin).
Assay [2] has as its target Phosphatidylinositol 4,5-bisphosphate 3-kinase catalytic subunit beta isoform (Homo sapiens, UniProt P42338). The experiment in a line: Inhibition of PI3Kbeta (unknown origin).
The target in assay [3] is Phosphatidylinositol 4,5-bisphosphate 3-kinase catalytic subunit gamma isoform (Homo sapiens, UniProt P48736). In words: Inhibition of PI3Kgamma (unknown origin).
The target of assay [4] is T1, Phosphatidylinositol 4,5-bisphosphate 3-kinase catalytic subunit delta isoform (Homo sapiens, UniProt O00329).
T1 sequence (O00329 whole entry): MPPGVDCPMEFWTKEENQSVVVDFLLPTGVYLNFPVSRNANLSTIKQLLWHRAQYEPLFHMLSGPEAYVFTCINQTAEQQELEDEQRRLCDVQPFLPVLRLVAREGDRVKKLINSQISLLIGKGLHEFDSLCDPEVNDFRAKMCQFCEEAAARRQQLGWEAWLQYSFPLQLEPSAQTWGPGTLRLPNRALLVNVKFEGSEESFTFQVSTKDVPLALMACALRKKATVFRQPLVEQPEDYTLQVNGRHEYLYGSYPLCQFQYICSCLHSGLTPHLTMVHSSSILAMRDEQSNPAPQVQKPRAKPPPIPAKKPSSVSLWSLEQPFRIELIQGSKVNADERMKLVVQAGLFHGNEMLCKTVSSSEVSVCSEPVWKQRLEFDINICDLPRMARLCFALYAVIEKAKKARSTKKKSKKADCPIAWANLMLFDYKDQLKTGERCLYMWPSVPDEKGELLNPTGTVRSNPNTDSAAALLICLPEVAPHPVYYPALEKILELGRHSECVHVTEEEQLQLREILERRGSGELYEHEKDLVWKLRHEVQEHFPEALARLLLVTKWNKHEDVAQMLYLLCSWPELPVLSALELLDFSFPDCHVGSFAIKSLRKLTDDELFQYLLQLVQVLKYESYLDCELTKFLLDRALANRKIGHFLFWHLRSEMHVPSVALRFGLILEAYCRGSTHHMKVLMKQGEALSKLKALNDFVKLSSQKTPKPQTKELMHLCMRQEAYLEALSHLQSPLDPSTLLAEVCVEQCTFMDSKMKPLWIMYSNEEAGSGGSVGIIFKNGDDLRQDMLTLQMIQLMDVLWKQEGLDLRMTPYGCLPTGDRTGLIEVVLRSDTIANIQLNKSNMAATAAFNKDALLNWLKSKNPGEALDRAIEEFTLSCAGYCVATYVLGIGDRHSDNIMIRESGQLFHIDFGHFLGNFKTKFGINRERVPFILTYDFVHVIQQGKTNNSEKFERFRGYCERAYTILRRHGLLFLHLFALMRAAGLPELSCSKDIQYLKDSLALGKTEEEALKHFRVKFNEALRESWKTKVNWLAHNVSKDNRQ
In words: Inhibition of PI3Kdelta (unknown origin).

The subject of the next assay is MGC-803. The experiment in a line: Antitumor activity against human MGC-803 cells xenografted in nude mouse assessed as tumor inhibition at 20 mg/kg, ip administered once every two days for 21 days relative to control. Type of assay: functional. Also noted: scale not given: the % may be the effect or the level left. The following applies: time 21 day.
The subject of assay [5] is PC-3. In words: cells. The following applies: Homo sapiens, PC-3, 72 h.
Description: Cytotoxicity against human PC-3 cells assessed as inhibition of cell growth incubated for 72 hrs by MTT assay
For the next assay, the system named is MDA-MB-231. In words: cells. To be noted: Homo sapiens.
The test system of the next assay is T47D. The experiment in a line: cells. The following applies: Homo sapiens.
Assay [6] deals with MCF7. The experiment in a line: Cytotoxicity against human MCF7 cells assessed as reduction in cell viability measured for 48 hrs by MTT assay. To be noted: MCF7, 48 h. Type of assay: functional, cell-based. (Tetrazolium dyes change colour on reduction, which living cells bring about.)
Assay [7] deals with HCT-116. In words: Cytotoxicity against human HCT-116 cells assessed as reduction in cell viability measured for 48 hrs by MTT assay. Type of assay: functional, cell-based. The following applies: HCT-116, 48 h.
The test system of the next assay is HepG2. In words: Cytotoxicity against human HepG2 cells assessed as reduction in cell viability measured for 48 hrs by MTT assay. The following applies: HepG2, 48 h. The format is functional, cell-based.
Assay [8] has as its system PC-3. The experiment in a line: Cytotoxicity against human PC-3 cells assessed as reduction in cell viability measured for 48 hrs by MTT assay. The format is functional, cell-based. The following applies: PC-3, 48 h.
Assay [9] concerns the target Hepatocyte growth factor receptor (Homo sapiens, UniProt P08581). In words: Inhibition of c-Met (unknown origin).
A further assay has as its system A549. The experiment in a line: Cytotoxicity against human A549 cells assessed as reduction in cell growth incubated for 5 days by MTT assay. Type of assay: functional, cell-based. To be noted: A549, 120 h.
Assay [10] concerns MCF7. In words: Cytotoxicity against human MCF7 cells assessed as reduction in cell growth incubated for 5 days by MTT assay. The format is functional, cell-based. To be noted: MCF7, 120 h.
The test system of a further assay is HeLa. In words: Cytotoxicity against human HeLa cells assessed as reduction in cell growth incubated for 5 days by MTT assay. Type of assay: functional, cell-based. The following applies: 120 h.
The target in a further assay is Aurora kinase B (Homo sapiens, UniProt Q96GD4). The experiment in a line: Inhibition of Aurora B (unknown origin).
For assay [11], the system named is HCT-116. In words: Cytotoxicity against human HCT-116 cells assessed as reduction in cell viability incubated for 72 hrs by MTT assay. The format is functional, cell-based. The following applies: HCT-116, 72 h.
Assay [12] addresses Epidermal growth factor receptor (Homo sapiens, UniProt P00533). In words: Inhibition of EGFR (unknown origin) extracted from insect cells by ELISA method. Type of assay: cell-free, Insect cell. A general note: ELISA stands for enzyme-linked immunosorbent assay.
Assay [13] can be described thus: Antiproliferative activity against mouse Ba/F3 EML4-ALK cells assessed as inhibition of cell growth. The format is functional, cell-based.
The nature of assay [14]: Antiproliferative activity against mouse Ba/F3 EML4-ALK-G1202R-L1196M cells assessed as inhibition of cell growth. Type of assay: functional, cell-based.

Converted amounts (≈) assume the structure as drawn.

Chain of Phosphatidylinositol 4,5-bisphosphate 3-kinase catalytic subunit alpha isoform (P42336 whole entry, canonical isoform): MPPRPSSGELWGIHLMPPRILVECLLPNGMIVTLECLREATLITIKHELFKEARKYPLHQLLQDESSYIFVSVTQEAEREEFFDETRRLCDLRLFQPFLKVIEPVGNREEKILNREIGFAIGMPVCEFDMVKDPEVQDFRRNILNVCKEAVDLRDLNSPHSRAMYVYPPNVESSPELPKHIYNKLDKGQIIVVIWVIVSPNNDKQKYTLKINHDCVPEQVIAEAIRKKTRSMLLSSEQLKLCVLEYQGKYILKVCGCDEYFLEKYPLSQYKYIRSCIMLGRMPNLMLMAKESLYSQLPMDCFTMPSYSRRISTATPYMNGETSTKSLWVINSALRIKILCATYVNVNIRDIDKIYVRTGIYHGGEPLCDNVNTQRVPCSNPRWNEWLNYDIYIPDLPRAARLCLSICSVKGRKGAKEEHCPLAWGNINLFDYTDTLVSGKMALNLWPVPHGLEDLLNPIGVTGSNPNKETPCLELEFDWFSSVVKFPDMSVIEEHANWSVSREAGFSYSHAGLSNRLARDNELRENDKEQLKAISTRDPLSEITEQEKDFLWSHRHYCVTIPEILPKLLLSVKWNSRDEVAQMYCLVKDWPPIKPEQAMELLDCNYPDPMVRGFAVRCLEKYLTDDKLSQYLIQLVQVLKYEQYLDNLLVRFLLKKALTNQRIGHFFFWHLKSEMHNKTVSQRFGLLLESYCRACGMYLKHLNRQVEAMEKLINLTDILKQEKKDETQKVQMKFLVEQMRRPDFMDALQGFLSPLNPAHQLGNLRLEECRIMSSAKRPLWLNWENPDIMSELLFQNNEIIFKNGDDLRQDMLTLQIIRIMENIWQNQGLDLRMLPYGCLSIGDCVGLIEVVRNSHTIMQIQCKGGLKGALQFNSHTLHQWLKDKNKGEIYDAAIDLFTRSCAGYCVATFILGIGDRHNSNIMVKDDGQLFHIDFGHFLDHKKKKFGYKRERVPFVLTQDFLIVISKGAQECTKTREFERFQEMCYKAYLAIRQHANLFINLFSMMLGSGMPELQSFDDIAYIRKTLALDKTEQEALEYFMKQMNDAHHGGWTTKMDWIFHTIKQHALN
Chain of Aurora kinase B (Q96GD4 whole entry): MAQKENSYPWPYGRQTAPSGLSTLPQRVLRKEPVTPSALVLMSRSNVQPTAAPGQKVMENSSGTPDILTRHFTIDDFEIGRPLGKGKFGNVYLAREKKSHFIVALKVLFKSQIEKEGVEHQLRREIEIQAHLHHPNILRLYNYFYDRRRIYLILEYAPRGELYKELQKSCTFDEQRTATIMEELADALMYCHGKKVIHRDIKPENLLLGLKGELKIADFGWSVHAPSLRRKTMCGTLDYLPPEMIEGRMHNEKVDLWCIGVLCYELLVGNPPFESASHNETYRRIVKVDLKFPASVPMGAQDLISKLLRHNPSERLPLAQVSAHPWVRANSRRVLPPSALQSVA
Chain of Phosphatidylinositol 4,5-bisphosphate 3-kinase catalytic subunit beta isoform (P42338 whole entry, canonical isoform): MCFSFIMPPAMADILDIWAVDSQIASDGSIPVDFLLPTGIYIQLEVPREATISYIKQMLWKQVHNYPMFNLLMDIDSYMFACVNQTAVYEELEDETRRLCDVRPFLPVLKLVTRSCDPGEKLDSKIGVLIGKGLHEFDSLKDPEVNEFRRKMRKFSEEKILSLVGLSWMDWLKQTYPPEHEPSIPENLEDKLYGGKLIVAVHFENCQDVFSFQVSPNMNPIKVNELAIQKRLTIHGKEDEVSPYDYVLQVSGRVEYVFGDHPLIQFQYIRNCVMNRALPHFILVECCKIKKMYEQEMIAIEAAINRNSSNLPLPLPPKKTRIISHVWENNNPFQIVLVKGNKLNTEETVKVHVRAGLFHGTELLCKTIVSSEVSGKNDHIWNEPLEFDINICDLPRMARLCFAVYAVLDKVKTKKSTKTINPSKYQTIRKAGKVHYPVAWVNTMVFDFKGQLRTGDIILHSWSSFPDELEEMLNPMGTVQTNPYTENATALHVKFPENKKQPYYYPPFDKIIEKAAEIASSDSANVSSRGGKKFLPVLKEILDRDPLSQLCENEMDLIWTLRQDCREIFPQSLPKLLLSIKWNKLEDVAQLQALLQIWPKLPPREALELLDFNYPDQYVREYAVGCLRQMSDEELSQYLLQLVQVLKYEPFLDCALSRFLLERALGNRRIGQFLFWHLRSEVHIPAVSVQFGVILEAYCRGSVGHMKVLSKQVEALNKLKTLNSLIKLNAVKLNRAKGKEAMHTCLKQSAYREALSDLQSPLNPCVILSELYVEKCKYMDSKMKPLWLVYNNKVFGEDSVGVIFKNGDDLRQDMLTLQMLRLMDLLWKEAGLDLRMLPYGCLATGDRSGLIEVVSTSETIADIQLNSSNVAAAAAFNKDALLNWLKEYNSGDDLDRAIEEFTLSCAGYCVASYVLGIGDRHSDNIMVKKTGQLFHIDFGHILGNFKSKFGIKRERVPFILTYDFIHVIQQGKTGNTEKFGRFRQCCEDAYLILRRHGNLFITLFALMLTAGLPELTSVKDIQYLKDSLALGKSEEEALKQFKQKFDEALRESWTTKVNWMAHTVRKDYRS
Chain of Hepatocyte growth factor receptor (P08581 whole entry): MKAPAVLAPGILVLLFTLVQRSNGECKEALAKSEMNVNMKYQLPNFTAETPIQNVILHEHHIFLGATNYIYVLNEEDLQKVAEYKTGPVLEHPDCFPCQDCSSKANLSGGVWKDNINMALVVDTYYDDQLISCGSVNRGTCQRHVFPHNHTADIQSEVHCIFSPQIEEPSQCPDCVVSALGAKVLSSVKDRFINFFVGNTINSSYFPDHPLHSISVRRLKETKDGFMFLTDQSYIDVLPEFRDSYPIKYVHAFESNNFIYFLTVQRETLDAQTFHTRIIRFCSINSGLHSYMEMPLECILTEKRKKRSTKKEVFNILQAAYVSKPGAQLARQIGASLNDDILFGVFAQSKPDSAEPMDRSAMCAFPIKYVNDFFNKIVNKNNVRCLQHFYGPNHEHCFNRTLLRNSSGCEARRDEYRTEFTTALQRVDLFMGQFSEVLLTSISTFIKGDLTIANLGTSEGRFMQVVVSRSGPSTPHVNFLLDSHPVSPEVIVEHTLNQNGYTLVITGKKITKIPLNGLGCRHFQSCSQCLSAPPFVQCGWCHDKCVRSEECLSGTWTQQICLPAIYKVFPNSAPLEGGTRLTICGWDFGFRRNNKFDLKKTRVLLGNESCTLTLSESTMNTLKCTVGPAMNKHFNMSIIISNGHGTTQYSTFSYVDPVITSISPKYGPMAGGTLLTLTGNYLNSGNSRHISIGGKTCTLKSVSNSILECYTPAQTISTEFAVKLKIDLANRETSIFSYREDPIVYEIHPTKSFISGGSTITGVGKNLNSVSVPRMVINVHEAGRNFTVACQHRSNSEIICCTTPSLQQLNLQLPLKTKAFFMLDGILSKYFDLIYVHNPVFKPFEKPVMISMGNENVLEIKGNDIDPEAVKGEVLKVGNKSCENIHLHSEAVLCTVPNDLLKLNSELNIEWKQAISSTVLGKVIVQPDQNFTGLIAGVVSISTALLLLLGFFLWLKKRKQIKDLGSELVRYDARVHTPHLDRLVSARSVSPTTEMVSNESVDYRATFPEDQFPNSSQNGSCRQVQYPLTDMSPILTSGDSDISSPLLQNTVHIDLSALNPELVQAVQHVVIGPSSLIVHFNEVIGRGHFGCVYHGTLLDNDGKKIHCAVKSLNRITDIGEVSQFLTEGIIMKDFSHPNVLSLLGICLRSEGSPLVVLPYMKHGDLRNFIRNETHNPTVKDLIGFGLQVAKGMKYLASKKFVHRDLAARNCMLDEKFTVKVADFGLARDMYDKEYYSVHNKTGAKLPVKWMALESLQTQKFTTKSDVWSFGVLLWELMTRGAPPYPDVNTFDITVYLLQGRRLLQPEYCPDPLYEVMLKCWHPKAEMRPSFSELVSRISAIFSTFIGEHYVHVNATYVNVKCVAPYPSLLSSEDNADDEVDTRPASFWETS
Chain of Epidermal growth factor receptor (P00533 whole entry): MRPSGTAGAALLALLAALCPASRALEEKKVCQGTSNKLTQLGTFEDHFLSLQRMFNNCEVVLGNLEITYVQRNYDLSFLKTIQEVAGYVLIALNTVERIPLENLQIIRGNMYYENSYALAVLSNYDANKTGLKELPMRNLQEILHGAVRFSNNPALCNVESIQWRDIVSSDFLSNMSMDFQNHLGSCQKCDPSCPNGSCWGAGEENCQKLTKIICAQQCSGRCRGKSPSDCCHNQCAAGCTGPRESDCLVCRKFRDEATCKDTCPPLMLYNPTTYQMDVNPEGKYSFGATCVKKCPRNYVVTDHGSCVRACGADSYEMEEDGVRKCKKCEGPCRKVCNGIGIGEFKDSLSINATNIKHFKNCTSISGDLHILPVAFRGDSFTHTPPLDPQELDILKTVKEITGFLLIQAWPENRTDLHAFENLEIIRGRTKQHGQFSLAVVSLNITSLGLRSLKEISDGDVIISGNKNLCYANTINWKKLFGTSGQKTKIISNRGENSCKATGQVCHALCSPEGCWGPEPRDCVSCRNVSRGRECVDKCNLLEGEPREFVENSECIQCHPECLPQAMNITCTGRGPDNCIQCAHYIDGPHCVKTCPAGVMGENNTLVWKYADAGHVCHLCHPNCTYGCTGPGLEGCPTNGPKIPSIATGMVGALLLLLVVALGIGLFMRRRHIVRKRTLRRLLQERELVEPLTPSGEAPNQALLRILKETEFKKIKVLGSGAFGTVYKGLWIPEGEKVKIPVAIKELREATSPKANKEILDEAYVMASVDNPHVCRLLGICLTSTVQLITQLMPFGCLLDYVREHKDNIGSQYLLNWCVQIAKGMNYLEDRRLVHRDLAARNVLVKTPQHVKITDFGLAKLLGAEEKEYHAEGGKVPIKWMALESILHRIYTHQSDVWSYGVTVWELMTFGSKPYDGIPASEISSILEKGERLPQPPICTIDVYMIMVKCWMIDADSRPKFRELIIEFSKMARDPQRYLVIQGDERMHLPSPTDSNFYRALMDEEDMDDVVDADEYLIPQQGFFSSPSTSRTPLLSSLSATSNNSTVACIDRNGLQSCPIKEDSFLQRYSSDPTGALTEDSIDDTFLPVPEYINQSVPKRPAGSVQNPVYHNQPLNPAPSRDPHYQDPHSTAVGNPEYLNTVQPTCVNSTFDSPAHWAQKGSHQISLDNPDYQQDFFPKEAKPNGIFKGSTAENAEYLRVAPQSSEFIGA
Description for MDA-MB-231: Antiproliferative activity against human MDA-MB-231 cells assessed as reduction in cell viability
Description for T47D: Antiproliferative activity against human T47D cells assessed as reduction in cell viability

As a reminder, the IC50 is the concentration that inhibits the measured activity by half. As to `CCOC(=O)c1nn(-c2ccccc2)c(=O)c2c(N)c(C#N)c(-c3cccs3)cc12`, the concentration for half-maximal inhibition (IC50) in the assay with SNB-75 was 3.7 µg/mL (≈ 8.88 µM); in assay [1], 4.39 µM; in assay [2], 13.6 µM; in assay [3], 12.5 µM; in [4], 3.11 µM.
As to `CCN(CC)CCNc1cc(-c2ccc(Br)cc2)nn2c(=O)c3ccccc3nc12`, the Activity with MGC-803 came to 55.9%.
In the assay on PC-3 [5], `O=C1CCC(c2ccc(NC(=S)Nc3ccccc3)cc2)=NN1c1ccccc1` gave an IC50 of 7.83 µM.
For the compound `O=C(NCC1CCOCC1)c1cc(C(F)(F)F)c(N2CCOCC2)nn1`, the half-maximal inhibitory concentration (IC50) in the assay on MDA-MB-231 worked out at 0.9 µM; in the assay with T47D, 0.43 µM.
Take `Oc1ccc(/C=N/Nc2nn3c(C(F)(F)F)nnc3c3ccccc23)cc1`: the IC50 was found to be 8.04 µM in the assay on MCF7 [6], 5.7 µM with HCT-116 [7], 11.2 µM with HepG2 and 4.25 µM in the assay with PC-3 [8].
For `Cc1cc(Oc2ccc(NC(=O)c3sc(-c4ccccn4)nc3C)cc2)c2nncn2n1`, the IC50 in [9] was 0.09 µM; with A549, 1.06 µM; in the assay with MCF7 [10], 1.2 µM; in the assay on HeLa, 2.73 µM.
Regarding `c1cc2[nH]ncc2cc1-c1cnc2ccc(OC[C@H]3CNCCO3)nn12`, on Aurora kinase B, the IC50 stood at 0.006 µM.
`COC(=O)C(CC(C)(C)C)NC(=O)CNC(=O)COc1nn(-c2ccccc2)c(=O)c2ccccc12` (stereo not drawn): in the assay with HCT-116 [11], the concentration for half-maximal inhibition (IC50) was 1.36 µM.
Regarding `COc1cccc(C2=NN(c3ccc(-c4ccccc4)nn3)C(c3ccc(F)c(OC)c3)C2)c1` (stereo not drawn), in assay [12], the IC50 turned out to be 0.65 µM.
With `C[C@H]1CNC(=O)c2cnn3ccc(nc23)N[C@H](C)c2cc(F)ccc2O1` [REPOTRECTINIB], the IC50 amounted to 0.164 µM in assay [13] and 0.208 µM in assay [14].
The compound `CNC(=O)c1cc(Oc2ccc(NC(=O)Nc3ccc(Cl)c(C(F)(F)F)c3)cc2)ccn1` [SORAFENIB] yielded a half-inhibitory concentration (IC50) with PC-3 [5] of 11.5 µM.

The values are drawn from ChEMBL document CHEMBL6083188, “Recent contributions of pyridazine as a privileged scaffold of anticancer agents in medicinal chemistry: An updated review” (Bioorg Med Chem, 2024).
